Assays:
Format in all cases: functional
[1] = Antiproliferative activity against human HCV29T cells by SRB method
T47D = test: Antiproliferative activity against human T47D cells by SRB method
[2] = Antiproliferative activity against human SW707 cells by SRB method
A549 = test: Antiproliferative activity against human A549 cells by SRB method

SMILES	log(1/ID50) [1]	log(1/ID50) (T47D)	log(1/ID50) [2]	log(1/ID50) (A549)
OCCCc1nnc(-c2ccc(O)cc2O)s1	-2.232	–	–	–
Oc1ccc(-c2nnc(-c3ccccc3)s2)c(O)c1	-2.276	–	–	–
Oc1ccc(-c2nnc(-c3ccc(O)cc3O)s2)c(O)c1	-2.045	–	–	–
Oc1ccc(-c2nnc(-c3ccc(-c4ccccc4)cc3)s2)c(O)c1	-1.693	-1.407	-1.161	-1.28
Oc1ccc(-c2nnc(Cc3ccccc3)s2)c(O)c1	-2.09	–	–	–
Oc1ccc(-c2nnc(Cc3cccc4ccccc34)s2)c(O)c1	-1.923	-1.629	-1.926	-1.865
Oc1ccc(-c2nnc(-c3ccncc3)s2)c(O)c1	<-2.567	–	–	–
Oc1ccc(-c2nnc(-c3cc4ccccc4s3)s2)c(O)c1	-1.848	–	–	–
Oc1ccc(-c2nnc(COc3ccccc3Cl)s2)c(O)c1	-2.061	-1.494	-2.037	-2.108
Oc1ccc(-c2nncs2)c(O)c1	-2.25	–	–	–
CCOc1ccc(-c2nnc(-c3ccc(O)cc3O)s2)cc1	-2.016	–	–	–
Cc1cccc(-c2nnc(-c3ccc(O)cc3O)s2)c1O	-1.745	-1.273	-1.746	-1.292
CCCCCCCCCCCCCCCc1nnc(-c2ccc(O)cc2O)s1	<-2.393	–	–	–
Oc1ccc(-c2nnc(COc3ccc(F)cc3)s2)c(O)c1	-1.999	–	–	–
Oc1ccc(-c2nnc(COc3ccc(Cl)cc3Cl)s2)c(O)c1	-2.41	–	–	–
O=[N+]([O-])c1ccc(OCc2nnc(-c3ccc(O)cc3O)s2)cc1	-2.429	–	–	–

SMILES	log(1/ID50) [1]	log(1/ID50) (T47D)	log(1/ID50) [2]	log(1/ID50) (A549)
Oc1ccc(-c2nnc(C(O)c3ccccc3)s2)c(O)c1 (stereo not drawn)	-1.857	-2.148	-2.027	-2.139
Oc1ccc(-c2nnc(CCCCc3nnc(-c4ccc(O)cc4O)s3)s2)c(O)c1	-1.421	<-2.354	-1.025	-1.42
Oc1cc(O)cc(-c2nnc(-c3ccc(O)cc3O)s2)c1	-2.182	–	–	–
Oc1ccc(-c2nnc(-c3ccccn3)s2)c(O)c1	-2.152	–	–	–
CC(C)(C)c1ccc(-c2nnc(-c3ccc(O)cc3O)s2)cc1	-1.057	-1.088	-1.139	-1.593
Oc1ccc(-c2nnc(-c3cccc4ccccc34)s2)c(O)c1	-1.871	-1.18	-1.766	-1.828
Oc1ccc(-c2nnc(COc3cccc(F)c3)s2)c(O)c1	-2.093	–	–	–
Oc1ccc(-c2nnc(-c3ccccc3Br)s2)c(O)c1	-1.919	-1.444	-1.89	-1.912
Cc1cc(Cl)ccc1OCc1nnc(-c2ccc(O)cc2O)s1	-1.816	-1.402	-2.117	-1.964
CCOc1cccc(-c2nnc(-c3ccc(O)cc3O)s2)c1	-2.04	–	–	–
Oc1ccc(-c2nnc(-c3ccccc3O)s2)c(O)c1	-2.083	–	–	–
COc1cccc(COc2nnc(-c3ccc(O)cc3O)s2)c1	-0.522	-0.958	-1.18	-1.379
Oc1ccc(-c2nnc(-c3ccco3)s2)c(O)c1	-2.178	-2.196	<-2.585	<-2.585
COc1cc(-c2nnc(-c3ccc(O)cc3O)s2)cc(OC)c1O	-2.027	–	–	–
CCOc1nnc(-c2ccc(O)cc2O)s1	-2.305	–	–	–
COc1nnc(-c2ccc(O)cc2O)s1	-2.343	–	–	–

— ChEMBL document CHEMBL1147847, “Evaluation of electronic, lipophilic and membrane affinity effects on antiproliferative activity of 5-substituted-2-(2,4-dihydroxyphenyl)-1,3,4-thiadiazoles against various human cancer cells” (2007)
